Measured values taken from BindingDB's records for doi:10.7270/Q2M32T6M (Vanderbilt Screening Center for GPCRs, Ion Channels and …, 2009).

These compounds were tested against T1, Solute carrier family 12 member 5 (Homo sapiens, UniProt Q9H2X9) (assay: KCC2 modulator potency by thallium flux, dose response, cell-based, HEK293 KCC2, FluoZin-2 fluorescence (AID 1736)). Conditions: not given.
T1 sequence (Q9H2X9 whole entry): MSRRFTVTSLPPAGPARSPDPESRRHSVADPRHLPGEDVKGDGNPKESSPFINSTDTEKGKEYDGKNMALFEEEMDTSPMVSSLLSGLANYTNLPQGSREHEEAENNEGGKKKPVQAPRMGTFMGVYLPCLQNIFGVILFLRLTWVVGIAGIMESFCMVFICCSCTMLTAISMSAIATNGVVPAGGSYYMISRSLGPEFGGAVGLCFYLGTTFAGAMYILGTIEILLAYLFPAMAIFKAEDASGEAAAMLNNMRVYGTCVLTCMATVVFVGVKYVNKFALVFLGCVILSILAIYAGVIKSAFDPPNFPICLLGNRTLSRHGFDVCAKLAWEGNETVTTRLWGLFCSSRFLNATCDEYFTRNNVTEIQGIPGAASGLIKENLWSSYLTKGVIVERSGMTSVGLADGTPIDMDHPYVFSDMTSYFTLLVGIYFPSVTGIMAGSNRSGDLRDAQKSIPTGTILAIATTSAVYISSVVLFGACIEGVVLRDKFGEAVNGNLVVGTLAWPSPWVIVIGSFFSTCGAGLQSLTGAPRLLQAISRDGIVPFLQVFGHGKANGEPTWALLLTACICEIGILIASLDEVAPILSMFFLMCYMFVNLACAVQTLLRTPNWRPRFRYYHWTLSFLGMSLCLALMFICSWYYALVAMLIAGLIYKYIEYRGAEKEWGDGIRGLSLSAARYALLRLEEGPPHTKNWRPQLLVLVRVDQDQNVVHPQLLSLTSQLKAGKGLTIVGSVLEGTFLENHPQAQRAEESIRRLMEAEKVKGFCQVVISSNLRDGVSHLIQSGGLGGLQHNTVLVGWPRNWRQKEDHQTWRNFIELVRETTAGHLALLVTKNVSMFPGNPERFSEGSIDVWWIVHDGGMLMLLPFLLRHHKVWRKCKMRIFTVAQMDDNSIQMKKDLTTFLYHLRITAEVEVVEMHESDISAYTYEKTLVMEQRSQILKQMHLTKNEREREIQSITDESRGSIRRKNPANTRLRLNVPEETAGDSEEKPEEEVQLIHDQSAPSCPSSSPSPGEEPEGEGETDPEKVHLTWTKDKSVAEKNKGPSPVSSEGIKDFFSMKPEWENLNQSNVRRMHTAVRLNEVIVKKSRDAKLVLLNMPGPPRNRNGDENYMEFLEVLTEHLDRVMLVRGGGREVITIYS
Compound O=C(c1cc(COc2c(F)cccc2F)on1)N1CCC(c2ccncc2)CC1 [4-[1-({5-[(2,6-difluorophenoxy)methyl]isoxazol-3-yl}carbonyl)piperidin-4-yl]pyridine] has an EC50 of 17.9 µM. O=C1OC(c2ccc(O)cc2)(c2ccc(O)cc2)c2ccccc21 was tested, and the EC50 was 1.8 µM. For CSc1ccccc1N=C(S)Nc1ccc(S(N)(=O)=O)cc1 [1-(2-methylsulfanylphenyl)-3-(4-sulfamoylphenyl)thiourea], the EC50 was 12.8 µM. O=C(Nc1ccc(Cc2ccncc2)cc1)c1cccc([N+](=O)[O-])c1 [3-Nitro-N-(4-pyridin-4-ylmethyl-phenyl)-benzamide] gave an EC50 of 4.96 µM. Compound O=C(NNc1nc(-c2ccccc2)cs1)c1cccs1 [MLS000858987] has an EC50 of 0.189 µM. Work on COc1ccc(-c2cc(CNC(=O)CN(C)Cc3ccccc3)on2)cc1 [2-[benzyl(methyl)amino]-N-[[3-(4-methoxyphenyl)-1,2-oxazol-5-yl]methyl]acetamide] yielded an EC50 of 24.6 µM. For Cc1noc(/C=C/c2ccco2)c1S(=O)(=O)N1CCC(C(=O)N2CCc3ccccc3C2)CC1 [2-{[1-({5-[(E)-2-(2-furyl)vinyl]-3-methylisoxazol-4-yl}sulfonyl)piperidin-4-yl]carbonyl}-1,2,3,4-tetrahydroisoquinoline], the EC50 was 3.86 µM. COc1cc(C(=S)N2CCOCC2)cc(OC)c1OC(=O)Cc1ccccc1 [(2,6-dimethoxy-4-morpholin-4-ylcarbothioyl-phenyl) 2-phenylethanoate] was tested, and the EC50 was 0.408 µM. CN(C)S(=O)(=O)c1ccc(Cl)c(C(=O)Nc2nc3ccccc3[nH]2)c1 [SMR000370637] gave an EC50 of 4.52 µM. With COc1ccccc1N1CCN(C(=S)NC(=O)/C=C/c2ccccc2)CC1 [(E)-N-[4-(2-Methoxy-phenyl)-piperazine-1-carbothioyl]-3-phenyl-acrylamide] the EC50 was 11.9 µM. Cc1cc([N+](=O)[O-])ccc1NCc1ccccc1 [2-methyl-4-nitro-N-(phenylmethyl)aniline] gave an EC50 of 3.75 µM.

Same assay, conditions: inactive by the depositor's call
For CC(C)c1ccc(NC(=O)c2cnn(-c3ccccc3)c2NC(=O)c2ccco2)cc1 [5-(2-furoylamino)-N-p-cumenyl-1-phenyl-pyrazole-4-carboxamide], the EC50 was 12.1 µM. Work on CCOc1ccc(C(C(=O)NC2CCCC2)N(CCCO)C(=O)c2ccc(-c3ccccc3)[nH]2)cc1 (configuration not stated) [N-[2-(cyclopentylamino)-1-(4-ethoxyphenyl)-2-oxoethyl]-N-(3-hydroxypropyl)-5-phenyl-1H-pyrrole-2-carboxamide] yielded an EC50 of 843 µM. In the case of Cc1nc(N2CCN(Cc3ccccc3)CC2)nc2c1C(=O)CCC2 [2-(4-benzylpiperazin-1-yl)-4-methyl-7,8-dihydro-6H-quinazolin-5-one], the EC50 is reported as 8.64 µM. With O=C(NC(=S)NNC(=O)c1ccccc1O)c1ccco1 [Furan-2-carboxylic acid [N'-(2-hydroxy-benzoyl)-hydrazinocarbothioyl]-amide] the EC50 was 303 µM. O=C(Cn1nc(-c2ccccc2F)ccc1=O)NCc1ccc2c(c1)OCO2 [2-[3-(2-fluorophenyl)-6-keto-pyridazin-1-yl]-N-piperonyl-acetamide] gave an EC50 of 8.27 µM. COc1cccc(C2c3c(oc4ccc(F)cc4c3=O)C(=O)N2CCCN2CCOCC2)c1 (configuration not stated) [7-fluoranyl-1-(3-methoxyphenyl)-2-(3-morpholin-4-ylpropyl)-1H-chromeno[2,3-c]pyrrole-3,9-dione] gave an EC50 of 69.9 µM.
